Each block holds one compound with its values, some of them ahead of it. Active and inactive are the calls of the source. Rule as the data show it, for most assays here: actives have a measured IC50 and inactives only a lower limit.
Columns and labels:
[1] = target: T1, Tyrosine-protein phosphatase non-receptor type 22 (Homo sapiens, UniProt Q9Y2R2); assay: SAR LYP1 Fluorescent Assay using OMFP substrate for In Vitro dose response studies - Set 2. [Related pubchem assays (depositor defined):AID1779, AID1784, AID2140, AID449726, AID488869]; format: functional
T1 sequence (Q9Y2R2 whole entry): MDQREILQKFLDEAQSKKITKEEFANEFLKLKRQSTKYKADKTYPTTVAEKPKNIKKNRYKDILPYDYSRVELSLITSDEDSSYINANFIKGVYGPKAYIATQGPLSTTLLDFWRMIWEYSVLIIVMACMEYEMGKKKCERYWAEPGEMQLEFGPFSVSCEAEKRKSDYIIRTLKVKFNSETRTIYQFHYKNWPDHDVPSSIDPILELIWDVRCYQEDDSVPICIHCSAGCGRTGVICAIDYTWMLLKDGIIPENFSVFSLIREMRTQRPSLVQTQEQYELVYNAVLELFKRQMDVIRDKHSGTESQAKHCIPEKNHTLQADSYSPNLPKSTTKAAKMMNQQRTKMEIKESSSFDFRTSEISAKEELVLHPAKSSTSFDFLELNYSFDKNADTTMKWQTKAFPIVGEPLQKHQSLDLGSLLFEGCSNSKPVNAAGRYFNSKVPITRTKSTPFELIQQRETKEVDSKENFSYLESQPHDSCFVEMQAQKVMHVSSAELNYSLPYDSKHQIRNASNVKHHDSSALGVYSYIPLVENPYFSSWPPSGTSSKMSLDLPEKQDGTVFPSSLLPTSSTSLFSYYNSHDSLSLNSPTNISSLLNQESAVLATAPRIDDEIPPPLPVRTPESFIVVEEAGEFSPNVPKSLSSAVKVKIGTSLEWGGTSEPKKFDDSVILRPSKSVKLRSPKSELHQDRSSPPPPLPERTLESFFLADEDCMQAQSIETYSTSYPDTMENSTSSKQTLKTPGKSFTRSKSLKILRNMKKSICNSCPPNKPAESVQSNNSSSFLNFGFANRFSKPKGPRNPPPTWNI

[2] = target: Tyrosine-protein phosphatase non-receptor type 12 (Homo sapiens, UniProt Q05209); assay: SAR Selectivity Analysis of small molecule inhibitors of PEST using pCAP in a fluorescence assay. [Related pubchem assays (depositor defined):AID1779, AID1784, AID2135]; format: functional
Tyrosine-protein phosphatase non-receptor type 12, sequence (Q05209 whole entry): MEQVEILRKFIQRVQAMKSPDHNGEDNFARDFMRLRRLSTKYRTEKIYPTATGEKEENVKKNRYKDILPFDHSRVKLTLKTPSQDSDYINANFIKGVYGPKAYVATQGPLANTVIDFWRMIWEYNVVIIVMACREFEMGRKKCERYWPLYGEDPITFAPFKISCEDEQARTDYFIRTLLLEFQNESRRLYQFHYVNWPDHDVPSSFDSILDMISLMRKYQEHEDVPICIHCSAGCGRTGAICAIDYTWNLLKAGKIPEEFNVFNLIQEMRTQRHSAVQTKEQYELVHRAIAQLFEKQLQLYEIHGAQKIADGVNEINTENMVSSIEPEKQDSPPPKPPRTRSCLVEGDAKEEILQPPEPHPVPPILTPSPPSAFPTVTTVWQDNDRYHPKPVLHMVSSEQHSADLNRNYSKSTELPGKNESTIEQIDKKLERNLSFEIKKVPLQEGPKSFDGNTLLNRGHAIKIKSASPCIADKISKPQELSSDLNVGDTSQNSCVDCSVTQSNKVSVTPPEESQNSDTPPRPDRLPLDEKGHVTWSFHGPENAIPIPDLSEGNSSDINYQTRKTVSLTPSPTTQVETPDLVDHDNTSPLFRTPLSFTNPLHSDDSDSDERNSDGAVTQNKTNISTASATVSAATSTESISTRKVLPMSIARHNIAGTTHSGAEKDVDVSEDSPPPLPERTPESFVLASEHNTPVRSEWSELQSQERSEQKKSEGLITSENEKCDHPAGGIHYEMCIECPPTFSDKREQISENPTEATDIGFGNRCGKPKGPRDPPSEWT

[3] = target: T1, Tyrosine-protein phosphatase non-receptor type 22; assay: SAR LYP1 Fluorescent Assay using pCAP substrate for In Vitro dose response studies - Set 2. [Related pubchem assays (depositor defined):AID1779, AID1784, AID2135, AID449727]; format: functional
[4] = target: T1, Tyrosine-protein phosphatase non-receptor type 22; assay: SAR LYP1 Fluorescent Assay using OMFP substrate for In Vitro dose response studies - Set 3. [Related pubchem assays (depositor defined):AID1779, AID1784, AID2140, AID2686]; format: functional
[5] = target: T2, Tyrosine-protein phosphatase non-receptor type 7 (Homo sapiens, UniProt P35236); assay: inhibition of hematopoietic tyrosine phosphatase HePTP – biochemical, set 2, SAR follow-up (AID 449736); format: functional
T2 sequence (P35236 whole entry): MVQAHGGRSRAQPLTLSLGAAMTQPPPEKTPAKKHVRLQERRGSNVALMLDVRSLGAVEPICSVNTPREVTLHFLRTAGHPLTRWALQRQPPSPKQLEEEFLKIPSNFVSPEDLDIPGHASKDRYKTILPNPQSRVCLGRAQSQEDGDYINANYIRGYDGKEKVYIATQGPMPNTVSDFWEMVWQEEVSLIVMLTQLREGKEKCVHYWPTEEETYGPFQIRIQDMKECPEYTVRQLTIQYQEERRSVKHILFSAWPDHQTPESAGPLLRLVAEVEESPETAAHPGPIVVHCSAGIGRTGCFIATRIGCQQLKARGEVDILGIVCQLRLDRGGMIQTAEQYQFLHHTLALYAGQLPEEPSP

[6] = target: T1, Tyrosine-protein phosphatase non-receptor type 22; assay: inhibition of lymphoid tyrosine phosphatase LYP – biochemical, pCAP fluorogenic substrate, fluorescence, set 3, SAR follow-up (AID 449727); format: functional
[7] = target: T1, Tyrosine-protein phosphatase non-receptor type 22; format: functional
[8] = Trypanosoma cruzi growth suppression in host cells – NIH3T3 host cells, beta-gal luminescence, confirmation (AID 2044); format: functional, cell-based;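 also: intracellular parasites grown in NIH/3T3 mouse fibroblasts as host cells; luminescent beta-galactosidase reporter signal from transgenic T. cruzi replicating inside host cells; inhibitors lower the luminescence signal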
[9] = target: T1, Tyrosine-protein phosphatase non-receptor type 22; format: functional; remark: listed apart in the source
[10] = target: T2, Tyrosine-protein phosphatase non-receptor type 7; format: functional
[11] = NIH3T3 cell viability loss – ATP luminescence, mouse fibroblasts, counter-screen, dose response (AID 2010); format: functional, cell-based;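 also: cells exposed to compound for about 90 hours before reading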
SUMO E1/E2 = SUMO E1/E2 (Homo sapiens, UniProt P63279+Q9UBE0+Q9UBT2); assay: SAR analysis of SUMOylation using HTRF in an in-Vitro dose response assay. [Related pubchem assays (depositor defined):AID2006, AID2011, AID2018, AID2069, AID2658]; format: functional
SUMO E1/E2, sequence (Q9UBE0 whole entry): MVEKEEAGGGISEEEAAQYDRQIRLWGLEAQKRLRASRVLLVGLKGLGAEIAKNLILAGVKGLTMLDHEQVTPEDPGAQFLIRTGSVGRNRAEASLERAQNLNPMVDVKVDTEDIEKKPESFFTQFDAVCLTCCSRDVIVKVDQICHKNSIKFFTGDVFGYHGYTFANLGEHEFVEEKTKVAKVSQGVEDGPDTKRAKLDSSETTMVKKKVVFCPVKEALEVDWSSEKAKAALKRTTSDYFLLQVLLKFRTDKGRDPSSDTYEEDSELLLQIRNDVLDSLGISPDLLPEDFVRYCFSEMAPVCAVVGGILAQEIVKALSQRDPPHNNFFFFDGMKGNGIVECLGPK
SUMO E1/E2, sequence (Q9UBT2 whole entry): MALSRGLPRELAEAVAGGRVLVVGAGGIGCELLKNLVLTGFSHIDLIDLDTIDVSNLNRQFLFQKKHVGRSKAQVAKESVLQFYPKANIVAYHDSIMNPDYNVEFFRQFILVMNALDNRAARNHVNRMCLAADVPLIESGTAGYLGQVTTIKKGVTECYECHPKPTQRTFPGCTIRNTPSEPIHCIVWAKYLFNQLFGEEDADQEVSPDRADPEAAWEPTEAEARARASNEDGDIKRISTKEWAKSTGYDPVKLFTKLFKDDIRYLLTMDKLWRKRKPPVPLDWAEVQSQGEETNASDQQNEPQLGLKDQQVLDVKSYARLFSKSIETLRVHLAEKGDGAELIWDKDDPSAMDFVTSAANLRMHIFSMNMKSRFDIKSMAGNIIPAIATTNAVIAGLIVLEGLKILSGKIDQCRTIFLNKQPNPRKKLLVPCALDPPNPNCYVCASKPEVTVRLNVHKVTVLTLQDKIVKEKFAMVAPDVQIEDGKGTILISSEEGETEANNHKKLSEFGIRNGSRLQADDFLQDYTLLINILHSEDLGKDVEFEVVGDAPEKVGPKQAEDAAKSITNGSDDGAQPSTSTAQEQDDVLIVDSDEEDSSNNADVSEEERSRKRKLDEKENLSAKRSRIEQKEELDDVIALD
SUMO E1/E2, sequence (P63279 whole entry): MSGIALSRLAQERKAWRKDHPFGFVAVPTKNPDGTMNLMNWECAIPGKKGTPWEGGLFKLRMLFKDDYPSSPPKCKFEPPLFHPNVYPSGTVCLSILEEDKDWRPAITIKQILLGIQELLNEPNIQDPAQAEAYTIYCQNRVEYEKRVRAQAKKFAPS

Beta-galactosidase = Beta-galactosidase (Escherichia coli, UniProt Q8VNN2); format: functional
Beta-galactosidase, sequence (Q8VNN2 whole entry): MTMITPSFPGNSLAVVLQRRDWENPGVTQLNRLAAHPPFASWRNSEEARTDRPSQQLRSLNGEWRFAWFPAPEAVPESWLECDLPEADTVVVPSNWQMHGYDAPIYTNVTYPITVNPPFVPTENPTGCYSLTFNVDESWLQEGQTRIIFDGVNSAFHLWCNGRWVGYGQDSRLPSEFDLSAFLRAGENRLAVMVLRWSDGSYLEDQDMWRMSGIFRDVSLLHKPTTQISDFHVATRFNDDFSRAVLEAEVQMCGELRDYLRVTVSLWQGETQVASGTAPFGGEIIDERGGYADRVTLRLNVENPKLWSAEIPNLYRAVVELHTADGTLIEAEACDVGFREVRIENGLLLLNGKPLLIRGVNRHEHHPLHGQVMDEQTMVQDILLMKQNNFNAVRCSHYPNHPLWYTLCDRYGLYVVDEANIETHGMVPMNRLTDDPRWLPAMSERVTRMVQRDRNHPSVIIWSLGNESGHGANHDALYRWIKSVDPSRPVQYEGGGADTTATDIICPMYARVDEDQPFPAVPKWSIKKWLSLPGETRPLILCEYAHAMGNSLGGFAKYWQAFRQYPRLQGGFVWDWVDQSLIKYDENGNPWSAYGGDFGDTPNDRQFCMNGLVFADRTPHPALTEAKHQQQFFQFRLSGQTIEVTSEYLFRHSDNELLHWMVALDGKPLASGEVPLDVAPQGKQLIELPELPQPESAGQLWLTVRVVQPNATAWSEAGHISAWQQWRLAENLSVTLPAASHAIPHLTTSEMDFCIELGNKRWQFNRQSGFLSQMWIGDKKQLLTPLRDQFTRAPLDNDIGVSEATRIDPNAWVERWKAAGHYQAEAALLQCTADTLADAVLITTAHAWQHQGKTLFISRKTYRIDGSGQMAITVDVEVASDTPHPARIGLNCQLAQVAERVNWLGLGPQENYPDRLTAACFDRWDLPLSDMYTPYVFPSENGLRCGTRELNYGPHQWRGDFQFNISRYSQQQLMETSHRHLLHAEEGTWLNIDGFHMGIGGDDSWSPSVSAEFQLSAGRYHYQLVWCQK

[12] = target: T3, Kappa-type opioid receptor (Homo sapiens, UniProt P41145); format: functional
T3 sequence (P41145 whole entry): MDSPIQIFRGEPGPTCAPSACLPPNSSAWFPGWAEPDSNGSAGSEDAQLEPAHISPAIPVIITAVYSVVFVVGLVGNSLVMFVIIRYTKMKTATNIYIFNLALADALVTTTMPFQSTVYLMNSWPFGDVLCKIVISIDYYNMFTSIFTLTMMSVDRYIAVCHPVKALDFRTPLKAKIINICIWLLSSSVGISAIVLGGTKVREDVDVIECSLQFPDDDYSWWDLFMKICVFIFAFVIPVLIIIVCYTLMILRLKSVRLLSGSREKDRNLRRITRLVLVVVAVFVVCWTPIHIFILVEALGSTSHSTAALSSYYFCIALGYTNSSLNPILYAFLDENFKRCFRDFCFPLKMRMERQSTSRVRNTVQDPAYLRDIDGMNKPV

Mu-type opioid receptor = Mu-type opioid receptor (Homo sapiens, UniProt P35372); assay: HTS Image-Based Screen for Agonists of the MOR Receptor. [Related pubchem assays (depositor defined):AID1777, AID1785, AID1786, AID2133]; format: functional;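 also: imaging of beta-arrestin GFP recruitment into spots after receptor activation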
Mu-type opioid receptor, sequence (P35372 whole entry): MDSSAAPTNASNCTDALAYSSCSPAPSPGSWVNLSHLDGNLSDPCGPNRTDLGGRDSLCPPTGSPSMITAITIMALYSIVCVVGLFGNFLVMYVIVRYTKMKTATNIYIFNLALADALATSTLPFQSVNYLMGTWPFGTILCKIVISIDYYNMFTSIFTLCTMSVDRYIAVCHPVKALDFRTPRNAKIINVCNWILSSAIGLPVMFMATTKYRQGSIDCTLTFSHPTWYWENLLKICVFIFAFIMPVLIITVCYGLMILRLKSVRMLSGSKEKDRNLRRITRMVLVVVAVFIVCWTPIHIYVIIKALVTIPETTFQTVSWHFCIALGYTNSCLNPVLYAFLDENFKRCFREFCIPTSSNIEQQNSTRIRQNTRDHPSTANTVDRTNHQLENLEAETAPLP

[13] = target: T3, Kappa-type opioid receptor; format: functional; remark: listed apart in the source
[14] = target: T4, Delta-type opioid receptor (Homo sapiens, UniProt P41143); assay: HTS Image-Based Screen for Antagonists of the DOR Receptor. [Related pubchem assays (depositor defined):AID1777, AID1785, AID1786, AID2133]; format: functional
T4 sequence (P41143 whole entry): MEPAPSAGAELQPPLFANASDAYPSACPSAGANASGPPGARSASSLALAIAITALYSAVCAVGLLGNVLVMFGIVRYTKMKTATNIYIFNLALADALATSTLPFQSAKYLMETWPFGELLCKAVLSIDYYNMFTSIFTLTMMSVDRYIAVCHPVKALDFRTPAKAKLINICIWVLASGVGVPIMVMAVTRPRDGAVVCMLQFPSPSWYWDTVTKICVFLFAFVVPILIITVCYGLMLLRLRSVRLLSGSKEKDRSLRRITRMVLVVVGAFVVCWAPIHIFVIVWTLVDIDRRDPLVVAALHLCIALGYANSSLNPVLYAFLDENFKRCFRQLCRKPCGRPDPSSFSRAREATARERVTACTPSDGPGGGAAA

[15] = target: T4, Delta-type opioid receptor; assay: HTS Image-Based Screen for Agonists of the DOR Receptor. [Related pubchem assays (depositor defined):AID1777, AID1786, AID2133]; format: functional

IC50 [1]: > 100 µM (inactive)
IC50 [2]: 66.3 µM (active)
IC50 [3]: > 100 µM (inactive)
IC50 [4]: > 100 µM (inactive)
IC50 [5]: > 100 µM (inactive)
IC50 [6]: > 100 µM (inactive)
SMILES: O=C(O)COc1ccc(C=NNC(=O)c2ccccc2Br)cc1

SMILES: CCCCOc1ccc(CN2CCCCC2)cc1
IC50 [7]: > 79.4 µM (inactive)
EC50 [8]: 1.2 µM (active)
IC50 [9]: > 79.4 µM (inactive)
IC50 [10]: > 79.4 µM (inactive)
EC50 [11]: > 30 µM (not active)

IC50 (SUMO E1/E2): > 100 µM (inactive)
SMILES: Cc1ccc(O)c(N=Cc2cccs2)c1

EC50 (Beta-galactosidase): > 31.5 µM (inactive)
IC50 [12]: 7.92 µM (active)
EC50 (Mu-type opioid receptor): > 32 µM (inactive)
IC50 [13]: > 32 µM
IC50 [14]: > 32 µM (inactive)
EC50 [15]: > 32 µM (inactive)
SMILES: COc1ccc(-c2csc(Cc3nc(O)cs3)n2)cc1

— ChEMBL document CHEMBL1201862, “PubChem BioAssay data set” (2004)
